From paper PMC6792352, “Limited Chemical Structural Diversity Found to Modulate Thyroid Hormone Receptor in the Tox21 Chemical Library” (Environmental Health Perspectives, 2019)
Counter-ions that a name gives are not always drawn. Like-named read-outs stand apart in the source and are kept apart here.

Test system: GH3-TRE-Luc cell line
Details: read-out: AC50 (uM) modified / 1000, viability, 1 nM T3 present, 24 h

CC(C)NCC(O)COc1cccc2ccccc12 (centres unmarked) [Propranolol hydrochloride]
CC50 (Tox21_110001=Tox21_201886): 73 µM | CC50 (Tox21_110001=Tox21_302905): 30.5 µM

CCCOC(=O)c1cc(O)c(O)c(O)c1 [Propyl gallate]
CC50 (Tox21_110001=Tox21_113531): 32.9 µM | CC50 (Tox21_110001=Tox21_202286): 61.7 µM | CC50 (Tox21_110001=Tox21_300060): 72.8 µM

COc1ccc(CN(CCN(C)C)c2ccccn2)cc1 [Pyrilamine]
CC50 (Tox21_110001=Tox21_200978): 39.2 µM

CCc1nc(N)nc(N)c1-c1ccc(Cl)cc1 [Pyrimethamine]
CC50 (Tox21_110001=Tox21_201834): > 90 µM | CC50 (Tox21_110001=Tox21_300129): 42.7 µM

O=c1c(O)c(-c2ccc(O)c(O)c2)oc2cc(O)cc(O)c12 [Quercetin]
CC50 (Tox21_110001=Tox21_202308): 40.5 µM | CC50 (Tox21_110001=Tox21_300285): 77.2 µM

C=C[C@H]1C[N@@]2CC[C@H]1C[C@H]2[C@H](O)c1ccnc2ccc(OC)cc12 [Quinine hydrochloride dihydrate]
CC50 (Tox21_110001=Tox21_303565): 50.6 µM

C=C[C@H]1C[N@@]2CC[C@H]1C[C@H]2[C@H](O)c1ccnc2ccc(OC)cc12 [Quinine]
CC50 (Tox21_110001=Tox21_112389): 42.9 µM

O=C(c1ccc(OCCN2CCCCC2)cc1)c1c(-c2ccc(O)cc2)sc2cc(O)ccc12 [Raloxifene hydrochloride]
CC50 (Tox21_110001=Tox21_110255): 5.6 µM | CC50 (Tox21_110001=Tox21_302369): 2.98 µM

COC(=O)[C@H]1[C@H]2C[C@@H]3c4[nH]c5cc(OC)ccc5c4CCN3C[C@H]2C[C@@H](OC(=O)c2cc(OC)c(OC)c(OC)c2)[C@@H]1OC [Reserpine]
CC50 (Tox21_110001=Tox21_111107): 12.5 µM | CC50 (Tox21_110001=Tox21_202395): 22.9 µM | CC50 (Tox21_110001=Tox21_300537): 75.5 µM

CC/N=c1\cc2oc3cc(NCC)c(C)cc3c(-c3ccccc3C(=O)OCC)c-2cc1C [Rhodamine 6G]
CC50 (Tox21_110001=Tox21_201597): 0.49 µM | CC50 (Tox21_110001=Tox21_302898): 1.44 µM

NC(=O)c1ncn([C@@H]2O[C@H](CO)[C@@H](O)[C@H]2O)n1 [Ribavirin]
CC50 (Tox21_110001=Tox21_110259): 40.1 µM

C=C(C)[C@H]1Cc2c(ccc3c2O[C@@H]2COc4cc(OC)c(OC)cc4[C@@H]2C3=O)O1 [Rotenone]
CC50 (Tox21_110001=Tox21_110819): 3.27 µM | CC50 (Tox21_110001=Tox21_201904): 15.5 µM | CC50 (Tox21_110001=Tox21_300695): 5.41 µM

CC[C@H]1OC(=O)[C@H](C)[C@@H](O[C@H]2C[C@@](C)(OC)[C@@H](O)[C@H](C)O2)[C@H](C)[C@@H](O[C@@H]2O[C@H](C)C[C@H](N(C)C)[C@H]2O)[C@](C)(O)C[C@@H](C)/C(=N\OCOCCOC)[C@H](C)[C@@H](O)[C@]1(C)O [Roxithromycin]
CC50 (Tox21_110001=Tox21_301835): 31 µM

CC(C)(C)NC(=O)[C@@H]1C[C@@H]2CCCC[C@@H]2CN1C[C@@H](O)[C@H](Cc1ccccc1)NC(=O)[C@H](CC(N)=O)NC(=O)c1ccc2ccccc2n1 [Saquinavir mesylate]
CC50 (Tox21_110001=Tox21_111137): 9.01 µM | CC50 (Tox21_110001=Tox21_202533): 27.8 µM

CCC(C)(C)C(=O)O[C@H]1C[C@@H](C)C=C2C=C[C@H](C)[C@H](CC[C@@H]3C[C@@H](O)CC(=O)O3)[C@H]21 [Simvastatin]
CC50 (Tox21_110001=Tox21_300400): 72.4 µM

CO[C@H]1C[C@@H]2CC[C@@H](C)[C@@](O)(O2)C(=O)C(=O)N2CCCC[C@H]2C(=O)O[C@H]([C@H](C)C[C@@H]2CC[C@@H](O)[C@H](OC)C2)CC(=O)[C@H](C)/C=C(\C)[C@@H](O)[C@@H](OC)C(=O)[C@H](C)C[C@H](C)/C=C/C=C/C=C/1C [Sirolimus]
CC50 (Tox21_110001=Tox21_110870): 0.00123 µM | CC50 (Tox21_110001=Tox21_112750): 0.00263 µM

O=[N+]([O-])c1ccc(O)cc1 [Sodium 4-nitrophenolate]
CC50 (Tox21_110001=Tox21_300477): 44.7 µM

Oc1c(Cl)cc(Cl)cc1Sc1cc(Cl)cc(Cl)c1O [Sodium bithionolate]
CC50 (Tox21_110001=Tox21_202791): 7.44 µM

CCN(CC)C(=S)S [Sodium diethyldithiocarbamate trihydrate]
CC50 (Tox21_110001=Tox21_302812): 8.88 µM

CCN(CC)C(=S)S [Sodium diethyldithiocarbamate]
CC50 (Tox21_110001=Tox21_112412): 1.18 µM

CC/C(=C(\c1ccccc1)c1ccc(OCCN(C)C)cc1)c1ccccc1 [Tamoxifen citrate]
CC50 (Tox21_110001=Tox21_110938): 5.89 µM | CC50 (Tox21_110001=Tox21_202070): 10.9 µM | CC50 (Tox21_110001=Tox21_300274): 4.69 µM

CC/C(=C(\c1ccccc1)c1ccc(OCCN(C)C)cc1)c1ccccc1 [Tamoxifen]
CC50 (Tox21_110001=Tox21_201243): 13.9 µM | CC50 (Tox21_110001=Tox21_300539): 8.55 µM

O=C(OC[C@H]1O[C@@H](OC(=O)c2cc(O)c(O)c(OC(=O)c3cc(O)c(O)c(O)c3)c2)[C@H](OC(=O)c2cc(O)c(O)c(OC(=O)c3cc(O)c(O)c(O)c3)c2)[C@@H](OC(=O)c2cc(O)c(O)c(OC(=O)c3cc(O)c(O)c(O)c3)c2)[C@@H]1OC(=O)c1cc(O)c(O)c(OC(=O)c2cc(O)c(O)c(O)c2)c1)c1cc(O)c(O)c(OC(=O)c2cc(O)c(O)c(O)c2)c1 [Tannic acid]
CC50 (Tox21_110001=Tox21_111422): 3.05 µM | CC50 (Tox21_110001=Tox21_300079): 15.7 µM

CC(C)(C)c1ccc(C(O)CCCN2CCC(C(O)(c3ccccc3)c3ccccc3)CC2)cc1 (centres unmarked) [Terfenadine]
CC50 (Tox21_110001=Tox21_110296): 5.45 µM

CCCCCCCCCCCCCC[N+](C)(C)C [Tetradonium bromide]
CC50 (Tox21_110001=Tox21_112327): 5.04 µM | CC50 (Tox21_110001=Tox21_302067): 8.21 µM

CN(C)C(=S)SC(=S)N(C)C [Tetramethylthiuram monosulfide]
CC50 (Tox21_110001=Tox21_111656): 2.19 µM | CC50 (Tox21_110001=Tox21_201554): 1.5 µM | CC50 (Tox21_110001=Tox21_302880): 0.329 µM

CSc1ccc2c(c1)N(CCC1CCCCN1C)c1ccccc1S2 (centres unmarked) [Thioridazine]
CC50 (Tox21_110001=Tox21_110294): 6.53 µM

CN(C)C(=S)SSC(=S)N(C)C [Thiram]
CC50 (Tox21_110001=Tox21_111150): 0.159 µM | CC50 (Tox21_110001=Tox21_201569): 12.7 µM | CC50 (Tox21_110001=Tox21_301102): 0.0524 µM
